In brackets after ≈: the same amount, converted by molar mass.
Each molecule was assayed on Salmonella typhimurium (assay: Antibacterial activity against Salmonella typhimurium MTCC 1251 assessed as zone of inhibition at 1 mg/disc after 24 hrs by disc diffusion method). Conditions: not given.
Format: functional, Salmonella enterica subsp. enterica serovar Typhimurium

Compound	inhibition zone (IZ)
C#CCN1C(=O)[C@]2(c3ccccc31)[C@H](c1cn(-c3ccccc3)nc1-c1ccccc1)[C@@](C#N)(C(=O)c1c[nH]c3ccccc13)C1CCCN12 (stereo partly specified)	10 mm
C=CCN1C(=O)[C@]2(c3ccccc31)[C@H](c1cn(-c3ccccc3)nc1-c1ccccc1)[C@@](C#N)(C(=O)c1c[nH]c3ccccc13)C1CSCN12 (stereo partly specified)	10 mm

The molecules below were run on Klebsiella pneumoniae (assay: Antibacterial activity against Klebsiella pneumoniae MTCC 109 assessed as zone of inhibition at 1 mg/disc after 24 hrs by disc diffusion method). Conditions: not given.
Format: functional

Compound	inhibition zone (IZ)
C#CCN1C(=O)[C@]2(c3ccccc31)[C@H](c1cn(-c3ccccc3)nc1-c1ccccc1)[C@@](C#N)(C(=O)c1c[nH]c3ccccc13)C1CCCN12 (stereo partly specified)	12 mm
C=CCN1C(=O)[C@]2(c3ccccc31)[C@H](c1cn(-c3ccccc3)nc1-c1ccccc1)[C@@](C#N)(C(=O)c1c[nH]c3ccccc13)C1CSCN12 (stereo partly specified)	9 mm

These molecules were tested on Proteus vulgaris (assay: Antibacterial activity against Proteus vulgaris MTCC 1771 assessed as zone of inhibition at 1 mg/disc after 24 hrs by disc diffusion method). Conditions: not given.
Format: functional

Compound	inhibition zone (IZ)
C#CCN1C(=O)[C@]2(c3ccccc31)[C@H](c1cn(-c3ccccc3)nc1-c1ccccc1)[C@@](C#N)(C(=O)c1c[nH]c3ccccc13)C1CCCN12 (stereo partly specified)	13 mm
C=CCN1C(=O)[C@]2(c3ccccc31)[C@H](c1cn(-c3ccccc3)nc1-c1ccccc1)[C@@](C#N)(C(=O)c1c[nH]c3ccccc13)C1CSCN12 (stereo partly specified)	10 mm

The molecules below were run on Shigella flexneri (assay: Antibacterial activity against Shigella flexneri MTCC 1457 assessed as zone of inhibition at 1 mg/disc after 24 hrs by disc diffusion method). Conditions: not given.
Format: functional

Compound	inhibition zone (IZ)
C#CCN1C(=O)[C@]2(c3ccccc31)[C@H](c1cn(-c3ccccc3)nc1-c1ccccc1)[C@@](C#N)(C(=O)c1c[nH]c3ccccc13)C1CCCN12 (stereo partly specified)	8 mm
C=CCN1C(=O)[C@]2(c3ccccc31)[C@H](c1cn(-c3ccccc3)nc1-c1ccccc1)[C@@](C#N)(C(=O)c1c[nH]c3ccccc13)C1CSCN12 (stereo partly specified)	9 mm

The molecules below were run on Micrococcus luteus (assay: Antibacterial activity against Micrococcus luteus MTCC 106 assessed as zone of inhibition at 1 mg/disc after 24 hrs by disc diffusion method). Conditions: not given.
Format: functional

Compound	inhibition zone (IZ)
C#CCN1C(=O)[C@]2(c3ccccc31)[C@H](c1cn(-c3ccccc3)nc1-c1ccccc1)[C@@](C#N)(C(=O)c1c[nH]c3ccccc13)C1CCCN12 (stereo partly specified)	10 mm
C=CCN1C(=O)[C@]2(c3ccccc31)[C@H](c1cn(-c3ccccc3)nc1-c1ccccc1)[C@@](C#N)(C(=O)c1c[nH]c3ccccc13)C1CSCN12 (stereo partly specified)	11 mm

Each molecule was assayed on Klebsiella aerogenes (assay: Antibacterial activity against Enterobacter aerogenes MTCC 111 assessed as zone of inhibition at 1 mg/disc after 24 hrs by disc diffusion method). Conditions: not given.
Format: functional

Compound	inhibition zone (IZ)
C#CCN1C(=O)[C@]2(c3ccccc31)[C@H](c1cn(-c3ccccc3)nc1-c1ccccc1)[C@@](C#N)(C(=O)c1c[nH]c3ccccc13)C1CCCN12 (stereo partly specified)	12 mm
C=CCN1C(=O)[C@]2(c3ccccc31)[C@H](c1cn(-c3ccccc3)nc1-c1ccccc1)[C@@](C#N)(C(=O)c1c[nH]c3ccccc13)C1CSCN12 (stereo partly specified)	9 mm

These molecules were tested on Staphylococcus epidermidis (assay: Antibacterial activity against Staphylococcus epidermidis MTCC 3615 assessed as zone of inhibition at 1 mg/disc after 24 hrs by disc diffusion method). Conditions: not given.
Format: functional

Compound	inhibition zone (IZ)
C#CCN1C(=O)[C@]2(c3ccccc31)[C@H](c1cn(-c3ccccc3)nc1-c1ccccc1)[C@@](C#N)(C(=O)c1c[nH]c3ccccc13)C1CCCN12 (stereo partly specified)	11 mm
C=CCN1C(=O)[C@]2(c3ccccc31)[C@H](c1cn(-c3ccccc3)nc1-c1ccccc1)[C@@](C#N)(C(=O)c1c[nH]c3ccccc13)C1CSCN12 (stereo partly specified)	11 mm

These molecules were tested on Staphylococcus aureus (assay: Antibacterial activity against Staphylococcus aureus MTCC 96 assessed as zone of inhibition at 1 mg/disc after 24 hrs by disc diffusion method). Conditions: not given.
Format: functional

Compound	inhibition zone (IZ)
C#CCN1C(=O)[C@]2(c3ccccc31)[C@H](c1cn(-c3ccccc3)nc1-c1ccccc1)[C@@](C#N)(C(=O)c1c[nH]c3ccccc13)C1CCCN12 (stereo partly specified)	10 mm
C=CCN1C(=O)[C@]2(c3ccccc31)[C@H](c1cn(-c3ccccc3)nc1-c1ccccc1)[C@@](C#N)(C(=O)c1c[nH]c3ccccc13)C1CSCN12 (stereo partly specified)	12 mm

These molecules were tested on Staphylococcus aureus (assay: Antibacterial activity against methicillin-resistant Staphylococcus aureus assessed as zone of inhibition at 1 mg/disc after 24 hrs by disc diffusion method). Conditions: not given.
Format: functional

Compound	inhibition zone (IZ)
C#CCN1C(=O)[C@]2(c3ccccc31)[C@H](c1cn(-c3ccccc3)nc1-c1ccccc1)[C@@](C#N)(C(=O)c1c[nH]c3ccccc13)C1CCCN12 (stereo partly specified)	8 mm
C=CCN1C(=O)[C@]2(c3ccccc31)[C@H](c1cn(-c3ccccc3)nc1-c1ccccc1)[C@@](C#N)(C(=O)c1c[nH]c3ccccc13)C1CSCN12 (stereo partly specified)	9 mm

Each molecule was assayed on Candida albicans (assay: Antifungal activity against Candida albicans MTCC 227 assessed as zone of inhibition at 1 mg/disc after 48 hrs by disc diffusion method). Conditions: not given.
Format: functional

Compound	inhibition zone (IZ)
C#CCN1C(=O)[C@]2(c3ccccc31)[C@H](c1cn(-c3ccccc3)nc1-c1ccccc1)[C@@](C#N)(C(=O)c1c[nH]c3ccccc13)C1CCCN12 (stereo partly specified)	10 mm
C=CCN1C(=O)[C@]2(c3ccccc31)[C@H](c1cn(-c3ccccc3)nc1-c1ccccc1)[C@@](C#N)(C(=O)c1c[nH]c3ccccc13)C1CSCN12 (stereo partly specified)	12 mm

These molecules were tested on Malassezia pachydermatis (assay: Antifungal activity against Malassezia pachydermatis assessed as zone of inhibition at 1 mg/disc after 48 hrs by disc diffusion method). Conditions: not given.
Format: functional

Compound	inhibition zone (IZ)
C#CCN1C(=O)[C@]2(c3ccccc31)[C@H](c1cn(-c3ccccc3)nc1-c1ccccc1)[C@@](C#N)(C(=O)c1c[nH]c3ccccc13)C1CCCN12 (stereo partly specified)	9 mm
C=CCN1C(=O)[C@]2(c3ccccc31)[C@H](c1cn(-c3ccccc3)nc1-c1ccccc1)[C@@](C#N)(C(=O)c1c[nH]c3ccccc13)C1CSCN12 (stereo partly specified)	10 mm

What follows are molecules tested on Salmonella typhimurium (assay: Antibacterial activity against Salmonella typhimurium MTCC 1251 assessed as inhibition of visual growth after 24 hrs). Conditions: Salmonella enterica, MTCC 1251, 24 h.
Format: functional, Salmonella enterica subsp. enterica serovar Typhimurium

Compound	MIC
C#CCN1C(=O)[C@]2(c3ccccc31)[C@H](c1cn(-c3ccccc3)nc1-c1ccccc1)[C@@](C#N)(C(=O)c1c[nH]c3ccccc13)C1CCCN12 (stereo partly specified)	125 µg/mL (≈ 191 µM)
C=CCN1C(=O)[C@]2(c3ccccc31)[C@H](c1cn(-c3ccccc3)nc1-c1ccccc1)[C@@](C#N)(C(=O)c1c[nH]c3ccccc13)C1CSCN12 (stereo partly specified)	250 µg/mL (≈ 372 µM)

Each molecule was assayed on Klebsiella pneumoniae (assay: Antibacterial activity against Klebsiella pneumoniae MTCC 109 assessed as inhibition of visual growth after 24 hrs). Conditions: MTCC 109, 24 h.
Format: functional

Compound	MIC
C#CCN1C(=O)[C@]2(c3ccccc31)[C@H](c1cn(-c3ccccc3)nc1-c1ccccc1)[C@@](C#N)(C(=O)c1c[nH]c3ccccc13)C1CCCN12 (stereo partly specified)	250 µg/mL (≈ 383 µM)
C=CCN1C(=O)[C@]2(c3ccccc31)[C@H](c1cn(-c3ccccc3)nc1-c1ccccc1)[C@@](C#N)(C(=O)c1c[nH]c3ccccc13)C1CSCN12 (stereo partly specified)	500 µg/mL (≈ 743 µM)

These molecules were tested on Proteus vulgaris (assay: Antibacterial activity against Proteus vulgaris MTCC 1771 assessed as inhibition of visual growth after 24 hrs). Conditions: MTCC 1771, 24 h.
Format: functional

Compound	MIC
C#CCN1C(=O)[C@]2(c3ccccc31)[C@H](c1cn(-c3ccccc3)nc1-c1ccccc1)[C@@](C#N)(C(=O)c1c[nH]c3ccccc13)C1CCCN12 (stereo partly specified)	250 µg/mL (≈ 383 µM)
C=CCN1C(=O)[C@]2(c3ccccc31)[C@H](c1cn(-c3ccccc3)nc1-c1ccccc1)[C@@](C#N)(C(=O)c1c[nH]c3ccccc13)C1CSCN12 (stereo partly specified)	500 µg/mL (≈ 743 µM)

Each molecule was assayed on Shigella flexneri (assay: Antibacterial activity against Shigella flexneri MTCC 1457 assessed as inhibition of visual growth after 24 hrs). Conditions: MTCC 1457, 24 h.
Format: functional

Compound	MIC
C#CCN1C(=O)[C@]2(c3ccccc31)[C@H](c1cn(-c3ccccc3)nc1-c1ccccc1)[C@@](C#N)(C(=O)c1c[nH]c3ccccc13)C1CCCN12 (stereo partly specified)	500 µg/mL (≈ 766 µM)
C=CCN1C(=O)[C@]2(c3ccccc31)[C@H](c1cn(-c3ccccc3)nc1-c1ccccc1)[C@@](C#N)(C(=O)c1c[nH]c3ccccc13)C1CSCN12 (stereo partly specified)	500 µg/mL (≈ 743 µM)

These molecules were tested on Micrococcus luteus (assay: Antibacterial activity against Micrococcus luteus MTCC 106 assessed as inhibition of visual growth after 24 hrs). Conditions: MTCC 106, 24 h.
Format: functional

Compound	MIC
C#CCN1C(=O)[C@]2(c3ccccc31)[C@H](c1cn(-c3ccccc3)nc1-c1ccccc1)[C@@](C#N)(C(=O)c1c[nH]c3ccccc13)C1CCCN12 (stereo partly specified)	500 µg/mL (≈ 766 µM)
C=CCN1C(=O)[C@]2(c3ccccc31)[C@H](c1cn(-c3ccccc3)nc1-c1ccccc1)[C@@](C#N)(C(=O)c1c[nH]c3ccccc13)C1CSCN12 (stereo partly specified)	500 µg/mL (≈ 743 µM)

What follows are molecules tested on Klebsiella aerogenes (assay: Antibacterial activity against Enterobacter aerogenes MTCC 111 assessed as inhibition of visual growth after 24 hrs). Conditions: MTCC 111, 24 h.
Format: functional

Compound	MIC
C#CCN1C(=O)[C@]2(c3ccccc31)[C@H](c1cn(-c3ccccc3)nc1-c1ccccc1)[C@@](C#N)(C(=O)c1c[nH]c3ccccc13)C1CCCN12 (stereo partly specified)	250 µg/mL (≈ 383 µM)
C=CCN1C(=O)[C@]2(c3ccccc31)[C@H](c1cn(-c3ccccc3)nc1-c1ccccc1)[C@@](C#N)(C(=O)c1c[nH]c3ccccc13)C1CSCN12 (stereo partly specified)	250 µg/mL (≈ 372 µM)

These molecules were tested on Staphylococcus epidermidis (assay: Antibacterial activity against Staphylococcus epidermidis MTCC 3615 assessed as inhibition of visual growth after 24 hrs). Conditions: MTCC 3615, 24 h.
Format: functional

Compound	MIC
C#CCN1C(=O)[C@]2(c3ccccc31)[C@H](c1cn(-c3ccccc3)nc1-c1ccccc1)[C@@](C#N)(C(=O)c1c[nH]c3ccccc13)C1CCCN12 (stereo partly specified)	125 µg/mL (≈ 191 µM)
C=CCN1C(=O)[C@]2(c3ccccc31)[C@H](c1cn(-c3ccccc3)nc1-c1ccccc1)[C@@](C#N)(C(=O)c1c[nH]c3ccccc13)C1CSCN12 (stereo partly specified)	125 µg/mL (≈ 186 µM)

These molecules were tested on Staphylococcus aureus (assay: Antibacterial activity against Staphylococcus aureus MTCC 96 assessed as inhibition of visual growth after 24 hrs). Conditions: MTCC 96, 24 h.
Format: functional

Compound	MIC
C#CCN1C(=O)[C@]2(c3ccccc31)[C@H](c1cn(-c3ccccc3)nc1-c1ccccc1)[C@@](C#N)(C(=O)c1c[nH]c3ccccc13)C1CCCN12 (stereo partly specified)	500 µg/mL (≈ 766 µM)
C=CCN1C(=O)[C@]2(c3ccccc31)[C@H](c1cn(-c3ccccc3)nc1-c1ccccc1)[C@@](C#N)(C(=O)c1c[nH]c3ccccc13)C1CSCN12 (stereo partly specified)	250 µg/mL (≈ 372 µM)

These molecules were tested on Staphylococcus aureus (assay: Antibacterial activity against methicillin-resistant Staphylococcus aureus assessed as inhibition of visual growth after 24 hrs). Conditions: not given.
Format: functional

Compound	MIC
C#CCN1C(=O)[C@]2(c3ccccc31)[C@H](c1cn(-c3ccccc3)nc1-c1ccccc1)[C@@](C#N)(C(=O)c1c[nH]c3ccccc13)C1CCCN12 (stereo partly specified)	250 µg/mL (≈ 383 µM)
C=CCN1C(=O)[C@]2(c3ccccc31)[C@H](c1cn(-c3ccccc3)nc1-c1ccccc1)[C@@](C#N)(C(=O)c1c[nH]c3ccccc13)C1CSCN12 (stereo partly specified)	500 µg/mL (≈ 743 µM)

These molecules were tested on Candida albicans (assay: Antifungal activity against Candida albicans MTCC 227 assessed as inhibition of visual growth after 48 to 72 hrs). Conditions: not given.
Format: functional

Compound	MIC
C=CCN1C(=O)[C@]2(c3ccccc31)[C@H](c1cn(-c3ccccc3)nc1-c1ccccc1)[C@@](C#N)(C(=O)c1c[nH]c3ccccc13)C1CSCN12 (stereo partly specified)	250 µg/mL (≈ 372 µM)

Source: ChEMBL document CHEMBL3351686, “Facile and diastereoselective synthesis of 3,2'-spiropyrrolidine-oxindoles derivatives, their molecular docking and antiproliferative activities” (2015)
